IC50 and inhibition data for 16 compounds are collected here from patent publication US7605154B2, “Substituted Thiazolo [4,5-d]pyrimidines as protein kinase inhibitors” (Janssen Pharmaceutica N.V., priority 2005, dated 2009).

The subject of experiment [1] is SK-OV-3. Put plainly: SK-OV-3 Cell Migration Inhibition. It is filed as cell-based. Conditions: several values in a cell are repeat determinations.
The next experiment has as its target T1, EGFR (Homo sapiens, UniProt P00533).
T1 construct: started at nucleotide 2189 (corresponding to amino acid 667) and ended at the termination codon; made in house; host or cells: Sf9 insect cells (baculovirus)
Put plainly: EGFR Kinase Assay. It is filed as biochemical. To be noted: GST-EGFR, 5 μM ATP. The essentials: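 Baculovirus/Sf9-expressed GST-EGFR with biotinylated polyGluTyr substrate, 5 μM ATP plus γ-33P-ATP, in 50 mM Tris pH 8.0, 10 mM MgCl2, 0.1 mM vanadate, 1 mM DTT; 1 h at 30 °C.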

Experiment [2] relates to SK-OV-3. In words: Cell Proliferation Inhibition Assay (14C-thymidine incorporation), SK-OV-3. Format: cell-based. To be noted: Homo sapiens. As to the method:
The ability of a test compound to inhibit unregulated cell proliferation may be determined by measuring incorporation of ^14C-labelled thymidine into newly synthesized DNA within cell lines derived from carcinomas originating from several tissues. Accordingly, the anti-proliferative effect of a compound on cells with a variety of phenotypes may be determined.
The carcinoma cells are trypsinized and counted. The cells (3000-8000 count) are added to each well of a 96-well CytoStar tissue culture treated scintillating microplate (Amersham #RPNQ0160) in complete medium (100 μL) and the plate is then incubated in complete medium for 24 hrs at 37° C. in an inert atmosphere containing 5% CO2. Test compound (1 μL) in 100% DMSO is added to the plate test-wells with DMSO only added to control-wells.
The plate contents are then discarded, the plate is washed twice with PBS (200 μL) and then PBS (200 μL) is added to each well. The plate is sealed and the degree of methyl ^14C-thyrnidine incorporation is quantified on a Packard Top Count.

A further experiment has as its target T2, c-Src kinase (Homo sapiens, UniProt P12931).
T2 construct: purchased Upstate Biotechnology, Lake Placid, N.Y
In words: c-Src Kinase Assay. Format: biochemical. To be noted: test concentration of 1 μM. Here is the method:
A mixure of a 10× kinase buffer (80 mM MOPS at pH 7.0, 2 mM EDTA and 100 mM Magnesium Chloride), ATP (5 μM final from a 10 mM stock), a Cdc2 peptide […] (100 μM final from a 2.5 mM stock), γ-^33P ATP (10 μCi/μL stock) and water (20 μL/well) was added to each well of a Streptavidin Flashplate.
Test compound in 100% DMSO (0.5 μL) was added to the appropriate wells. Diluted c-Src kinase (human) (Upstate Biotechnology, Lake Placid, N.Y.) (diluted in a buffer consisting of 20 mM MOPS at pH 7.0, 1 mM EDTA, β-mercaptoethanol (0.1%), Brij-35 (0.01%), glycerol (5%), and 1 mg/mL bovine serum albumin) (2.5 μL) was added to the wells to initiate the reactions. The reaction plates were incubated at 30° C. for 40 min. The reaction was terminated by the addition of a 3% phosphoric acid solution (5 μL). The reaction product (10 μL) was spotted onto a P30 filtermat and washed for 5 minutes in phosphoric acid (75 mM). The wash sequence was repeated two more times, followed with one final wash in methanol. The plates were then dried, sealed and read on the TopCount scintillation counter after adding 30 μL scintillation fluid.
Percent inhibition was derived according to the procedure described in Example 5. The results for those compounds tested are shown in Table 2 at a test concentration of 1 μM.

For another experiment, the target named is T3, Lyn kinase (Homo sapiens, UniProt P07948).
T3 construct: purchased Upstate biotechnology, Lake Placid, N.Y
T3 sequence (P07948 whole entry): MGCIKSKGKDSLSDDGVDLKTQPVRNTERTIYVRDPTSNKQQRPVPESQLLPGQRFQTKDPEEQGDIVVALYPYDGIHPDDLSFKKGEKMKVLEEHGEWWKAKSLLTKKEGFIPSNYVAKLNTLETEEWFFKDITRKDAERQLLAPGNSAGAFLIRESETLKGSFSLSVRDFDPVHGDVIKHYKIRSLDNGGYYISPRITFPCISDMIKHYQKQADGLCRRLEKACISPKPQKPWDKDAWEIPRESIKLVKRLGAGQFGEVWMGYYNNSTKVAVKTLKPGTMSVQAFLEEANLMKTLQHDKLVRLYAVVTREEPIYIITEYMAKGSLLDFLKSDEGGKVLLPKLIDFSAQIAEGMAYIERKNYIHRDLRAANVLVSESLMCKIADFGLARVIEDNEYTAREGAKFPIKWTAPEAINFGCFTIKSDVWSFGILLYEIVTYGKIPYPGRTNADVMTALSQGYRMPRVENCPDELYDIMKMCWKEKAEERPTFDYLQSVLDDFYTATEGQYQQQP
In words: Lyn Kinase Assay. Conditions: test concentration of 1 μM. Format: biochemical. Here is the method: A mixture of a 10× kinase buffer (500 mM MOPS at pH 7.5, 1 mM EGTA, 1 mM Sodium Vanadate, 1% β-mercaptoethanol and 100 mM Magnesium Acetate), ATP (5 μM final from a 10 mM stock), polyGluTyr (0.1 mg/mL final from a 1 mg/mL stock), γ-^33P ATP (10 μCi/μL stock) and water (20 μL/well) was added to each well of a Streptavidin Flashplate.
Test compound in 100% DMSO (0.5 μL) was added to the appropriate wells. Diluted Lyn kinase (human) (Upstate biotechnology, Lake Placid, N.Y) (diluted in a buffer consisting of 50 mM Tris at pH 7.5, 0.1 mM EGTA, Sodium Vanadate (0.1 mM), β-mercaptoethanol (0.1%) and 1 mg/mL bovine serum albumin) (2.5 μL) was added to the wells to initiate the reactions.
The reaction plates were incubated at 30° C. for 40 min. The reaction was terminated by the addition of a 3% phosphoric acid solution (5 μL). The reaction product (10 μL) was spotted onto a P30 filtermat and washed for 5 minutes in phosphoric acid (75 mM). The wash sequence was repeated two more times, followed with one final wash in methanol. The plates were then dried, sealed and read on the TopCount scintillation counter after adding 30 μL scintillation fluid.
Percent inhibition was derived according to the procedure described in Example 5. The results for those compounds tested are shown in Table 3 at a test concentration of 1 μM.

For another experiment, the target named is T4, HER-2 (Homo sapiens, UniProt P04626).
T4 construct: the nucleotides encoding amino acids 679 to 1255 of HER-2; HIS6-Thrombin (His6 tag with thrombin site) (N); purchased Proqinase (Freiburg, Germany)
T4 sequence (P04626 679-1255): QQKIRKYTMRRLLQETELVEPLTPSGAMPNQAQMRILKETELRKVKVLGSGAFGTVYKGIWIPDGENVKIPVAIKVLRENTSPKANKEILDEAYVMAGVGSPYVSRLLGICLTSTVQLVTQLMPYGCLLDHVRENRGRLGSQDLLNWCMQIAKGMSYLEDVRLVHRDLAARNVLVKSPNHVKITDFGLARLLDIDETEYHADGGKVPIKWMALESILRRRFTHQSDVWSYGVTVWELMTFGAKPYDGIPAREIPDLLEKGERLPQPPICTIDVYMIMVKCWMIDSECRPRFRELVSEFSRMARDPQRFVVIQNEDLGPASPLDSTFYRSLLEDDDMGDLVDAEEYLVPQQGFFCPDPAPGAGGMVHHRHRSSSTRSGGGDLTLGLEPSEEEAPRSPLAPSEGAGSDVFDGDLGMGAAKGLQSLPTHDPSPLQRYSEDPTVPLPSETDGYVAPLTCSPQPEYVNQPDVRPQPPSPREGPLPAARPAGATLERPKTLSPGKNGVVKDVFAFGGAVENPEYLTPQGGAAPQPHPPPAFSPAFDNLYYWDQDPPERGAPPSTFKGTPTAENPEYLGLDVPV
In words: HER-2 Kinase Assay. It is filed as biochemical. Conditions: GST-HER2, 1 μM ATP. As to the method:
The HER-2 kinase used was purified at Proqinase (Freiburg, Germany) from a construct that consisted of a fusion of GST (Glutathione-S-Transferase), HIS6-Thrombin and the nucleotides encoding amino acids 679 to 1255 of HER-2.
A mixture of a 10× kinase reaction buffer (600 mM Hepes at pH 7.5, 30 mM Magnesium Chloride, 0.03 mM Sodium Vanadate and […] PEG 20,000), DTT (1.2 mM final from a 10 mM stock), ATP (1 μM from a 10 mM stock), biotinylated polyGluTyr (1.5 ng/μL final from stock of 1 μg/μL prepared by Upstate Biotechnologies, Lake Placid, N.Y.), Manganese Chloride (3 mM final from a 1 M stock), γ-^33P-ATP (10 μCi/μL stock) and water (70 μL/well) was added to each well of a Streptavidin Flashplate (Cat. # SMP103, NEN, Boston, Mass.).
Test compound stock (1 μL) was added to the appropriate wells. Diluted GSTHER2 kinase (6.7 ng/μL diluted into 50 mM Tris-HCl at pH 8.0 and 0.1% bovine serum albumin) (30 μL) was added (total volume of 200 ng/well) to initiate the reactions.
The reaction plates were incubated at 30° C. for 1 hr. The reaction was terminated by aspirating the reaction mixture from the plate wells and washing the wells three times with a 1×PBS stop buffer (300 μL) and 100 mM EDTA. After the final wash, the same stop buffer (200 μL) was again added to the wells. The plates were then sealed and read on the TopCount scintillation counter. […]

[3] abbreviates: Homo sapiens, SK-OV-3, SK-OV-3 migration.

Values joined by “and” are separate entries in the source; they are usually repeats but may differ in a detail not shown here. Identical values can stand only once.

T1 sequence (P00533 667-1210 limits assumed): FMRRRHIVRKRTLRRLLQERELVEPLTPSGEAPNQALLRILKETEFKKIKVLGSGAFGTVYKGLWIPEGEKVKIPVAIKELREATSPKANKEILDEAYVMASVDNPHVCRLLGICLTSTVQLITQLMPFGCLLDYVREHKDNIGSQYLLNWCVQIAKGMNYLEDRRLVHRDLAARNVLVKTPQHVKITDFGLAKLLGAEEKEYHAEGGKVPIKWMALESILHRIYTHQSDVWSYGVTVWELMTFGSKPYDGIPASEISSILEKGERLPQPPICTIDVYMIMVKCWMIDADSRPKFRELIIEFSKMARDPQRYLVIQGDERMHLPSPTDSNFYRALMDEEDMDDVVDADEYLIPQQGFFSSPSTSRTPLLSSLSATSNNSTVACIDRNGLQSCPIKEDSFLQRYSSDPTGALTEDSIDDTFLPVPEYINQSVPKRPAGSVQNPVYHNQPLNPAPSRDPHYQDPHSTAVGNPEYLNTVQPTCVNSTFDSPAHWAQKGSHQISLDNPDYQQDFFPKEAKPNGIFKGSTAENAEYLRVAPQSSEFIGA
T2 sequence (P12931 whole entry): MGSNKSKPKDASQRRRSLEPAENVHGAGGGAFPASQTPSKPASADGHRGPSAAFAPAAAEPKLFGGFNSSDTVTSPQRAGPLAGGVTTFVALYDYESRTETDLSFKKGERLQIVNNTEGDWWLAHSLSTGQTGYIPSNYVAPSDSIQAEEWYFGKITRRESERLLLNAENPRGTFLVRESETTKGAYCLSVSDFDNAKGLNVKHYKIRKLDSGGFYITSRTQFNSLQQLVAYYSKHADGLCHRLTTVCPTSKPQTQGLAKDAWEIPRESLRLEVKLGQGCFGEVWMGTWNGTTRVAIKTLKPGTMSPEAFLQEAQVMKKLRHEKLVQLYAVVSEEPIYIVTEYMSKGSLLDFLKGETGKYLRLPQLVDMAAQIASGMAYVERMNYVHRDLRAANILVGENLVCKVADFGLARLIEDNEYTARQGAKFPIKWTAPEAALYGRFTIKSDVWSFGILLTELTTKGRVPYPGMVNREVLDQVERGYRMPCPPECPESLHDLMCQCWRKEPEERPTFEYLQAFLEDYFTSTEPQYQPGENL

One may read the IC50 as the midpoint of a concentration-inhibition curve. Lower therefore signals greater potency. As to `Fc1ccc(Nc2ncnc3nc(Nc4ccc(CCN5CCOCC5)cc4)sc23)cc1Cl` [Cpd 4, N^7-(3-chloro-4-fluoro-phenyl)-N^2-[4-(2-morpholin-4-yl-ethyl)-phenyl]-thiazolo[4,5-d]pyrimidine-2,7-diamine], the IC50 in the experiment on SK-OV-3 [1] (setting [3]) worked out at 735 nM; in the experiment on SK-OV-3 [1] (SK-OV-3 migration) it was 520 nM; on EGFR, 21.7 nM.

Turning to `C#Cc1cccc(Nc2ncnc3nc(Nc4ccc(CN5CCOCC5)cc4)sc23)c1` [Cpd 35, N^7-(3-ethynyl-phenyl)-N^2-(4-morpholin-4-ylmethyl-phenyl)-thiazolo[4,5-d]pyrimidine-2,7-diamine], the IC50 was 474 nM in the experiment on SK-OV-3 [1] (setting [3]), 380 nM in the experiment on SK-OV-3 [1] (SK-OV-3 migration) and 30 nM against EGFR.

On to `Fc1ccc(Nc2ncnc3nc(Nc4ccc(CN5CCCC5)cc4)sc23)cc1Cl` [Cpd 17, N^7-(3-chloro-4-fluoro-phenyl)-N^2-(4-pyrrolidin-1-ylmethyl-phenyl)-thiazolo[4,5-d]pyrimidine-2,7-diamine], for which the 50% inhibitory concentration (IC50) against EGFR stood at 4.2 nM; with SK-OV-3 [2], 620 nM. For `CN(C)CCc1ccc(Nc2nc3ncnc(Nc4ccc(F)c(Cl)c4)c3s2)cc1` [Cpd 11, N^7-(3-chloro4-fluoro-phenyl)-N^2-[4-(2-dimethylamino-ethyl)-phenyl]-thiazolo[4,5-d]pyrimidine-2,7-diamine], in that order: 12.8 nM and 600 nM. In general, inhibition refers to the relative decrease from the control value, in per cent. Read a high inhibition as strong suppression. Turning to `NS(=O)(=O)c1ccc(Nc2nc3ncnc(Nc4ccc(F)c(Cl)c4)c3s2)cc1` [Cpd 73, 4-[7-(3-chloro-4-fluoro-phenylamino)-thiazolo[4,5-d]pyrimidin-2-ylamino]-benzenesulfonamnide], the inhibition at 1 µM on c-Src kinase turned out to be 65%. For `C#Cc1cccc(Nc2ncnc3nc(Nc4ccc(S(=O)(=O)N(CCOC)CCOC)cc4)sc23)c1` [Cpd 33, 4-[7-(3-ethynyl-phenylamino)-thiazolo[4,5-d]pyrimidin-2-ylamino]-N,N-bis-(2-methoxy-ethyl)-benzenesulfonamide], the IC50 was 252 nM in the experiment with SK-OV-3 [1] (setting [3]) and 25.3 nM at EGFR. At EGFR, `C#Cc1cccc(Nc2ncnc3nc(Nc4ccc(CNCC(O)CO)cc4)sc23)c1` (stereo not shown) [Cpd 66, 3-{4-[7-(3-ethynyl-phenylamino)-thiazolo[4,5-d]pyrimidin-2-ylamino]-benzylamino}-propane-1,2-diol] returned an IC50 of 7.28 nM. The inhibition at 1 µM at c-Src kinase is 15%; on Lyn kinase it was 25%. Turning to `CN1CCN(Cc2ccc(Nc3nc4ncnc(Nc5ccc(Oc6ccccc6)cc5)c4s3)cc2)CC1` [Cpd 94, N^2-[4-(4-methyl-piperazin-1-ylmethyl)-phenyl]-N^7-(4-phenoxy-phenyl)-thiazolo[4,5-d]pyrimidine-2,7-diamine], the values for the IC50 against EGFR and against HER-2 were 319 nM and 1870 nM, respectively.

Turning to `COCCN(CCOC)Cc1ccc(Nc2nc3ncnc(Nc4ccc(F)c(Cl)c4)c3s2)cc1` [Cpd 34, N^2-(4-{[bis-(2-methoxy-ethyl)-amino]-methyl}-phenyl)-N^7-(3-chloro-4-fluoro-phenyl)-thiazolo[4,5-d]pyrimidine-2,7-diamine], the IC50 in the experiment with SK-OV-3 [1] (setting [3]) was determined as 210 nM; against EGFR it was 6.4 nM. For `CN(C)CCCNS(=O)(=O)c1ccc(Nc2nc3ncnc(Nc4ccc(F)c(Cl)c4)c3s2)cc1` [Cpd 31, 4-[7-(3-chloro-4-fluoro-phenylamino)-thiazolo[4,5-d]pyrimidin-2-ylamino]-N-(3-dimethylamino-propyl)-benzenesulfonamide], the IC50 in the experiment on SK-OV-3 [1] (setting [3]) was 138 nM; in the experiment on SK-OV-3 [1] (SK-OV-3 migration), 180 nM and 191 nM; on EGFR it was 10.3 nM.

As for `COCCN(CCOC)S(=O)(=O)c1ccc(Nc2nc3ncnc(Nc4ccc(F)c(Cl)c4)c3s2)cc1` [Cpd 32, 4-[7-(3-chloro-4-fluoro-phenylamino)-thiazolo[4,5-d]pyrimidin-2-ylamino]-N,N-bis-(2-methoxy-ethyl)-benzenesulfonamide], the IC50 was over 5000 nM in the experiment with SK-OV-3 [1] (setting [3]) and 20.8 nM at EGFR. `Fc1ccc(Nc2ncnc3nc(Nc4ccc(CN5CCCCC5)cc4)sc23)cc1Cl` [Cpd 2, N^7-(3-chloro-4-fluoro-phenyl)-N^2-(4-piperidin-1-ylmethyl-phenyl)-thiazolo[4,5-d]pyrimidine-2,7-diamine]: the IC50 at EGFR came to 8.9 nM; in the experiment on SK-OV-3 [2] it was 490 nM. Consider `NS(=O)(=O)c1ccc(Nc2nc3ncnc(Nc4ccc(N5CCOCC5)cc4)c3s2)cc1` [Cpd 86, 4-[7-(4-(morpholin-4-yl)-phenylamino)-thiazolo[4,5-d]pyrimidin-2-ylamino]-benzenesulfonamide], for which it took 17900 nM to reach half-maximal inhibition against EGFR (IC50).

Compound `C#Cc1cccc(Nc2ncnc3nc(Nc4ccc(CNCCOC(C)C)cc4)sc23)c1` [Cpd 55, N^7-(3-ethynyl-phenyl)-N^2-{4-[(2-isopropoxy-ethylamino)-methyl]-phenyl}-thiazolo[4,5-d]pyrimidine-2,7-diamine] returned an IC50 against EGFR of 8.25 nM. The same measure, in the same setting: with `NS(=O)(=O)c1ccc(Nc2nc3ncnc(Nc4c(F)cccc4F)c3s2)cc1` [Cpd 75, 4-[7-(2,6-difluoro-phenylamino)-thiazolo[4,5-d]pyrimidin-2-ylamino]-benzenesulfonamide] the figure was 187 nM; with `NS(=O)(=O)c1ccc(Nc2nc3ncnc(Nc4cc(Cl)cc(Cl)c4)c3s2)cc1` [Cpd 81, 4-[7-(3,5-dichloro-phenylamino)-thiazolo[4,5-d]pyrimidin-2-ylamino]-benzenesulfonamide], 116 nM.
